Test results as given in the NIST ThermoML archive (doi:10.1021/je9000608).
± gives the expanded uncertainty stated by the source.

Key:
[1] = Liquid; for mass density: 101.33 kPa, Pycnometric method; for vapor or sublimation pressure: Ebulliometric method (Recirculating still)
[2] = refractive index (Na D-line) (dimensionless); conditions: 101.33 kPa, Liquid, Standard Abbe refractometry

ClC(Cl)C(Cl)Cl [1,1,2,2-tetrachloroethane]
mass density ([1]; 293.15 K): 1593 ± 1.8 kg/m3 | vapor or sublimation pressure ([1]; 417.25 K): 95.6 ± 1 kPa | refractive index ([2]; 293.15 K): 1.494 ± 0.0008

ClCCCl [1,2-dichloroethane]
mass density ([1]; 293.15 K): 1252.9 ± 1.3 kg/m3 | vapor or sublimation pressure ([1]; 355.15 K): 95.6 ± 1 kPa | refractive index ([2]; 293.15 K): 1.4196 ± 0.0008

CCCCCCO [hexan-1-ol]
mass density ([1]; 298.15 K): 815.3 ± 0.8 kg/m3 | vapor or sublimation pressure ([1]; 428.45 K): 95.6 ± 1 kPa | refractive index ([2]; 298.15 K): 1.4157 ± 0.0008

ClC(Cl)=C(Cl)Cl [tetrachloroethene]
mass density ([1]; 293.15 K): 1623 ± 1.8 kg/m3 | vapor or sublimation pressure ([1]; 392.15 K): 95.6 ± 1 kPa | refractive index ([2]; 293.15 K): 1.5058 ± 0.0008

ClC=C(Cl)Cl [trichloroethene]
mass density ([1]; 303.15 K): 1451.3 ± 1.6 kg/m3 | vapor or sublimation pressure ([1]; 358.45 K): 95.6 ± 1 kPa | refractive index ([2]; 303.15 K): 1.475 ± 0.0008
